Test [1] has as its system ENR+CD organoids (ISC to Paneth cell differentiation). Description: Primary screen: basal (non-stimulated) lysozyme secretion LYZ.NS, 2.5-D 384-well ENR+CD organoid differentiation. It is filed as cell-based, mouse. The conditions noted are these: primary screen; for Z.LYZ.NS: standard z score. The text has this: (§1) High-throughput screening.
Test [2] has the same test system. As to the kind of experiment: Primary screen: CCh-stimulated lysozyme secretion LYZ.S, 2.5-D 384-well ENR+CD organoid differentiation. Type of test: cell-based, mouse. The conditions noted are these: primary screen.
Text: as §1

The test system of a further test is ENR+CD organoids. As to the kind of experiment: Primary screen: ATP (CellTiter-Glo 3D, CTG) cell number/viability, 2.5-D 384-well ENR+CD organoids.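 For all read-outs here: compounds given at plating and again on day 3 over a 6-day differentiation from ENR+CV stem-cell-enriched precursors, ATP measured on day 6, plate median as control.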 The conditions noted are these: primary screen; for Z.CTG: standard z score. A general note: In ATP-based viability assays light output follows the ATP content of the culture.

Molecules are shown by their SMILES.

Consider `C[C@]12C=CC(=O)N[C@@H]1CC[C@@H]1[C@@H]2CC[C@]2(C)[C@@H](C(=O)Nc3cc(C(F)(F)F)ccc3C(F)(F)F)CC[C@@H]12` [Dutasteride], for which the Dose.FC.LYZ.NS in test [1] (dose 0.08 uM) was 0.065 log2 fold change; in test [1] (dose 0.40 uM), 0.006 log2 fold change; in test [1] (dose 2.00 uM), −0.105 log2 fold change; in test [1] (dose 10.00 uM) it was −0.092 log2 fold change. The Z.LYZ.NS in test [1] (dose 0.08 uM) is 0.568; in test [1] (dose 0.40 uM), 0.052; in test [1] (dose 2.00 uM), −0.915; in test [1] (dose 10.00 uM) it was −0.799. Also, the Dose.FC.LYZ.S is 0.001 log2 fold change in test [2] (dose 0.08 uM), −0.054 log2 fold change in test [2] (dose 0.40 uM), −0.074 log2 fold change in test [2] (dose 2.00 uM) and −0.151 log2 fold change in test [2] (dose 10.00 uM). In addition, the Dose.FC.CTG in the test with ENR+CD organoids (dose 0.08 uM) is on record as 0.057 log2 fold change; in the test with ENR+CD organoids (dose 0.40 uM), −0.266 log2 fold change; with ENR+CD organoids (dose 2.00 uM), −0.098 log2 fold change; in the test with ENR+CD organoids (dose 10.00 uM), −0.057 log2 fold change.

For `O=C(N/N=C/c1ccc(O)c(O)c1)c1cc2ccccc2cc1O` [Dynasore], the Dose.FC.LYZ.NS in test [1] (dose 0.08 uM) was 0.049 log2 fold change; in test [1] (dose 0.40 uM), −0.020 log2 fold change; in test [1] (dose 2.00 uM), 0.036 log2 fold change; in test [1] (dose 10.00 uM) it was 0.048 log2 fold change. Also, the Z.LYZ.NS in test [1] (dose 0.08 uM) is 0.431; in test [1] (dose 0.40 uM), −0.176; in test [1] (dose 2.00 uM) it was 0.314; in test [1] (dose 10.00 uM), 0.414. Moreover, the Dose.FC.LYZ.S was 0.078 log2 fold change in test [2] (dose 0.08 uM), 0.122 log2 fold change in test [2] (dose 0.40 uM), −0.024 log2 fold change in test [2] (dose 2.00 uM) and 0.041 log2 fold change in test [2] (dose 10.00 uM). The Dose.FC.CTG was −0.248 log2 fold change with ENR+CD organoids (dose 0.08 uM), −0.253 log2 fold change in the test with ENR+CD organoids (dose 0.40 uM), −0.152 log2 fold change with ENR+CD organoids (dose 2.00 uM) and −0.011 log2 fold change with ENR+CD organoids (dose 10.00 uM).

Take `CCn1c2ccccc2c2cc(Nc3ccnc(NCCCN4CCOCC4)n3)ccc21` [EHop-016]: the Dose.FC.LYZ.NS in test [1] (dose 0.08 uM) is 0.177 log2 fold change; in test [1] (dose 0.40 uM) it was 0.035 log2 fold change; in test [1] (dose 2.00 uM), 0.029 log2 fold change; in test [1] (dose 10.00 uM), −0.203 log2 fold change. The Z.LYZ.NS in test [1] (dose 0.08 uM) was 1.537; in test [1] (dose 0.40 uM) it was 0.302; in test [1] (dose 2.00 uM), 0.252; in test [1] (dose 10.00 uM) it was −1.769. Further, the Dose.FC.LYZ.S in test [2] (dose 0.08 uM) is given as 0.091 log2 fold change; in test [2] (dose 0.40 uM), 0.012 log2 fold change; in test [2] (dose 2.00 uM), −0.011 log2 fold change; in test [2] (dose 10.00 uM), −0.299 log2 fold change. The Dose.FC.CTG in the test on ENR+CD organoids (dose 0.08 uM) is 0.081 log2 fold change; in the test with ENR+CD organoids (dose 0.40 uM), 0.062 log2 fold change; with ENR+CD organoids (dose 2.00 uM), 0.088 log2 fold change; in the test with ENR+CD organoids (dose 10.00 uM), −0.757 log2 fold change. For the same compound, the Z.CTG with ENR+CD organoids (dose 0.08 uM) is listed as 0.193; in the test on ENR+CD organoids (dose 0.40 uM) it was 0.147; in the test on ENR+CD organoids (dose 2.00 uM) it was 0.211; in the test on ENR+CD organoids (dose 10.00 uM) it was −1.808.

With `CCN(c1cc(-c2ccc(CN3CCOCC3)cc2)cc(C(=O)NCc2c(C)cc(C)[nH]c2=O)c1C)C1CCOCC1` [EPZ-6438], the Dose.FC.LYZ.NS in test [1] (dose 0.08 uM) was 0.012 log2 fold change; in test [1] (dose 0.40 uM), −0.023 log2 fold change; in test [1] (dose 2.00 uM), 0.015 log2 fold change; in test [1] (dose 10.00 uM), 0.062 log2 fold change. Besides, the Z.LYZ.NS is on record as 0.108 in test [1] (dose 0.08 uM), −0.203 in test [1] (dose 0.40 uM), 0.130 in test [1] (dose 2.00 uM) and 0.538 in test [1] (dose 10.00 uM). Moreover, the Dose.FC.LYZ.S is listed as 0.003 log2 fold change in test [2] (dose 0.08 uM), −0.023 log2 fold change in test [2] (dose 0.40 uM), −0.011 log2 fold change in test [2] (dose 2.00 uM) and 0.046 log2 fold change in test [2] (dose 10.00 uM). Besides, the Dose.FC.CTG in the test with ENR+CD organoids (dose 0.08 uM) is reported as 0.045 log2 fold change; in the test on ENR+CD organoids (dose 0.40 uM) it was 0.075 log2 fold change; in the test on ENR+CD organoids (dose 2.00 uM) it was −0.068 log2 fold change; in the test on ENR+CD organoids (dose 10.00 uM), 0.336 log2 fold change.

For the compound `COc1cccc(C=NCCN=Cc2cccc(OC)c2[O-])c1[O-].[Cl-].[Mn+3]` [EUK 134], the Dose.FC.LYZ.NS in test [1] (dose 0.08 uM) was 0.068 log2 fold change; in test [1] (dose 0.40 uM), 0.003 log2 fold change; in test [1] (dose 2.00 uM) it was 0.028 log2 fold change; in test [1] (dose 10.00 uM), −0.085 log2 fold change. Moreover, the Z.LYZ.NS in test [1] (dose 0.08 uM) was 0.594; in test [1] (dose 0.40 uM) it was 0.026; in test [1] (dose 2.00 uM) it was 0.247; in test [1] (dose 10.00 uM) it was −0.741. Besides, the Dose.FC.LYZ.S in test [2] (dose 0.08 uM) is given as 0.025 log2 fold change; in test [2] (dose 0.40 uM), 0.057 log2 fold change; in test [2] (dose 2.00 uM), −0.034 log2 fold change; in test [2] (dose 10.00 uM), −0.132 log2 fold change. Further, the Dose.FC.CTG in the test on ENR+CD organoids (dose 0.08 uM) was −0.015 log2 fold change; in the test on ENR+CD organoids (dose 0.40 uM), −0.162 log2 fold change; in the test on ENR+CD organoids (dose 2.00 uM), 0.091 log2 fold change; with ENR+CD organoids (dose 10.00 uM), −0.024 log2 fold change. The Z.CTG with ENR+CD organoids (dose 0.08 uM) was −0.035; in the test on ENR+CD organoids (dose 0.40 uM) it was −0.387; with ENR+CD organoids (dose 2.00 uM), 0.217; in the test on ENR+CD organoids (dose 10.00 uM), −0.057.

In the case of `NC(=O)C1CCCc2c1[nH]c1ccc(Cl)cc21` (stereo not drawn) [EX 527 (Selisistat)], the Dose.FC.LYZ.NS turned out to be 0.100 log2 fold change in test [1] (dose 0.08 uM), 0.059 log2 fold change in test [1] (dose 0.40 uM), 0.030 log2 fold change in test [1] (dose 2.00 uM) and 0.057 log2 fold change in test [1] (dose 10.00 uM). For the same compound, the Z.LYZ.NS in test [1] (dose 0.08 uM) turned out to be 0.871; in test [1] (dose 0.40 uM), 0.512; in test [1] (dose 2.00 uM), 0.261; in test [1] (dose 10.00 uM), 0.494. Further, the Dose.FC.LYZ.S is 0.062 log2 fold change in test [2] (dose 0.08 uM), 0.047 log2 fold change in test [2] (dose 0.40 uM), −0.051 log2 fold change in test [2] (dose 2.00 uM) and −0.011 log2 fold change in test [2] (dose 10.00 uM). Besides, the Dose.FC.CTG in the test with ENR+CD organoids (dose 0.08 uM) is 0.240 log2 fold change; with ENR+CD organoids (dose 0.40 uM), 0.174 log2 fold change; in the test with ENR+CD organoids (dose 2.00 uM) it was 0.341 log2 fold change; in the test with ENR+CD organoids (dose 10.00 uM), 0.320 log2 fold change. The Z.CTG in the test with ENR+CD organoids (dose 0.08 uM) is given as 0.574; in the test on ENR+CD organoids (dose 0.40 uM), 0.415; in the test with ENR+CD organoids (dose 2.00 uM), 0.814; in the test with ENR+CD organoids (dose 10.00 uM), 0.766.

As to `COc1cc2c(cc1Cc1cccc(Cl)c1F)c(=O)c(C(=O)O)cn2[C@H](CO)C(C)C` [Elvitegravir (GS-9137, JTK-303)], the Dose.FC.LYZ.NS is −0.047 log2 fold change in test [1] (dose 0.08 uM), −0.069 log2 fold change in test [1] (dose 0.40 uM), −0.094 log2 fold change in test [1] (dose 2.00 uM) and −0.090 log2 fold change in test [1] (dose 10.00 uM). Besides, the Z.LYZ.NS was −0.412 in test [1] (dose 0.08 uM), −0.598 in test [1] (dose 0.40 uM), −0.821 in test [1] (dose 2.00 uM) and −0.782 in test [1] (dose 10.00 uM). Also, the Dose.FC.LYZ.S is −0.010 log2 fold change in test [2] (dose 0.08 uM), 0.092 log2 fold change in test [2] (dose 0.40 uM), −0.126 log2 fold change in test [2] (dose 2.00 uM) and −0.135 log2 fold change in test [2] (dose 10.00 uM). Moreover, the Dose.FC.CTG with ENR+CD organoids (dose 0.08 uM) is given as −0.001 log2 fold change; with ENR+CD organoids (dose 0.40 uM), −0.040 log2 fold change; with ENR+CD organoids (dose 2.00 uM), −0.344 log2 fold change; with ENR+CD organoids (dose 10.00 uM) it was −0.737 log2 fold change. Moreover, the Z.CTG with ENR+CD organoids (dose 0.08 uM) was −0.001; in the test with ENR+CD organoids (dose 0.40 uM) it was −0.095; in the test with ENR+CD organoids (dose 2.00 uM) it was −0.823; in the test with ENR+CD organoids (dose 10.00 uM), −1.760.

For `CCCCCCCCCCCC1=C(O)C(=O)C=C(O)C1=O` [Embelin], the Dose.FC.LYZ.NS is reported as −0.015 log2 fold change in test [1] (dose 0.08 uM), −0.082 log2 fold change in test [1] (dose 0.40 uM), −0.055 log2 fold change in test [1] (dose 2.00 uM) and −0.094 log2 fold change in test [1] (dose 10.00 uM). Also, the Z.LYZ.NS in test [1] (dose 0.08 uM) is given as −0.129; in test [1] (dose 0.40 uM) it was −0.712; in test [1] (dose 2.00 uM), −0.482; in test [1] (dose 10.00 uM) it was −0.819. Besides, the Dose.FC.LYZ.S in test [2] (dose 0.08 uM) is −0.034 log2 fold change; in test [2] (dose 0.40 uM), −0.122 log2 fold change; in test [2] (dose 2.00 uM), −0.111 log2 fold change; in test [2] (dose 10.00 uM) it was −0.119 log2 fold change. In addition, the Dose.FC.CTG with ENR+CD organoids (dose 0.08 uM) is listed as −0.323 log2 fold change; in the test on ENR+CD organoids (dose 0.40 uM) it was −0.723 log2 fold change; in the test with ENR+CD organoids (dose 2.00 uM), −0.325 log2 fold change; with ENR+CD organoids (dose 10.00 uM), −0.720 log2 fold change.

These data come from US20220323406A1, “METHODS AND COMPOSITIONS FOR DIFFERENTIATING STEM CELLS” (Massachusetts Institute of Technology, priority 2019, published 2022).
